In PubChem BioAssay (NCI):
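Assay format: 96-well plates, 48-hour exposure. At the TGI there is no net growth.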

What was measured:
Assay in all cases: DTP human tumour cell line panel, 48 h
[1] = tested on: 786-0 renal
[2] = tested on: BT-549 breast
[3] = tested on: CAKI-1 renal
[4] = tested on: CCRF-CEM leukemia
[5] = tested on: DU-145 prostate
[6] = tested on: HOP-62 NSCLC
[7] = tested on: HOP-92 NSCLC
[8] = tested on: MALME-3M melanoma
[9] = tested on: MDA-MB-435
[10] = tested on: MDA-N
[11] = tested on: NCI-H23 lung
[12] = tested on: NCI-H522 lung
[13] = tested on: OVCAR-3 ovarian
[14] = tested on: SF-295 CNS
[15] = tested on: SF-539 CNS
[16] = tested on: SN12C renal
[17] = tested on: T-47D breast
[18] = tested on: TK-10 renal
[19] = tested on: UACC-257 melanoma
[20] = tested on: UACC-62 melanoma

Row | Structure (SMILES) | TGI [1] [µM] | TGI [2] [µM] | TGI [3] [µM] | TGI [4] [µM] | TGI [5] [µM] | TGI [6] [µM] | TGI [7] [µM] | TGI [8] [µM] | TGI [9] [µM] | TGI [10] [µM] | TGI [11] [µM] | TGI [12] [µM] | TGI [13] [µM] | TGI [14] [µM] | TGI [15] [µM] | TGI [16] [µM] | TGI [17] [µM] | TGI [18] [µM] | TGI [19] [µM] | TGI [20] [µM]
1 | Cc1ccc(CC(Cc2ccc(C)cc2C(=O)O)C(=O)O)cc1 (configuration not stated) | > 100 | > 100 | > 100 | > 100 | > 100 | > 100 | > 100 | > 100 | > 100 | > 100 | > 100 | > 100 | > 100 | > 100 | > 100 | > 100 | > 100 | > 100 | > 100 | > 100
2 | O=C(O)c1cc(O)c2c(c1)C([C@@H]1c3cccc(O)c3C(=O)c3c(O)cc(C(=O)O)cc31)c1cccc(O)c1C2=O (some centres not stated) | > 100 | > 100 | > 100 | > 100 | > 100 | – | 57.7 | 44.7 | 49 | 41.5 | > 100 | 44.6 | > 100 | > 100 | 55 | > 100 | > 100 | > 100 | > 100 | 78.6
3 | COC(=O)c1ccccc1C1CN=NC12Cc1cc(C)c(C)cc1C2=O (configuration not stated) | > 100 | > 100 | > 100 | > 100 | > 100 | > 100 | 78.9 | > 100 | > 100 | > 100 | > 100 | 67.3 | > 100 | > 100 | > 100 | > 100 | > 100 | > 100 | 44.9 | > 100
4 | COC(=O)C1=C(O)CCCC(CCC(C)=O)=C1 | 77.3 | > 100 | > 100 | 25.2 | > 100 | – | 95.7 | > 100 | > 100 | > 100 | > 100 | 31.1 | > 100 | > 100 | 61.1 | > 100 | > 100 | > 100 | > 100 | > 100
5 | CC1(C)CCCOc2cccc(c2)OCCCC(C)(C)C1=O | > 100 | 89.3 | > 100 | 44.2 | > 100 | > 100 | 99.1 | 70.3 | > 100 | > 100 | > 100 | 67.3 | 69.1 | – | > 100 | > 100 | > 100 | > 100 | – | 73.6
6 | O[C@H]1[C@H]2[C@H](O)C[C@H](CCOCc3ccccc3)CN2C[C@H]1O | > 100 | > 100 | > 100 | > 100 | > 100 | – | > 100 | > 100 | > 100 | > 100 | > 100 | > 100 | > 100 | > 100 | > 100 | > 100 | > 100 | – | > 100 | > 100
7 | O=S(=O)(NC1OCCCC1I)c1ccccc1 (configuration not stated) | > 100 | > 100 | > 100 | > 100 | > 100 | > 100 | > 100 | > 100 | > 100 | > 100 | > 100 | > 100 | > 100 | > 100 | > 100 | > 100 | > 100 | > 100 | > 100 | > 100
8 | CCNc1nc2c(ncn2C2CC(O)C(COP(=O)(O)O)O2)c(=O)[nH]1 (configuration not stated) | > 100 | > 100 | > 100 | – | > 100 | > 100 | > 100 | > 100 | > 100 | > 100 | > 100 | > 100 | > 100 | > 100 | > 100 | > 100 | > 100 | > 100 | > 100 | > 100
9 | O=[N+]([O-])c1ccc2c(c1)nc(Cc1ccc(Cl)cc1)n2C[C@@H]1CCCN2CCCCC12 (some centres not stated) | 24.5 | 27.1 | 31.7 | > 44.5 | 38.1 | 48.9 | 25.4 | 26.2 | 28.3 | 25.9 | 34.3 | 27.4 | 30.8 | 29.3 | 35.1 | 27.6 | 36.6 | 39.9 | 31.4 | 28.7
10 | COc1cc2c(cc1C)NC(=O)/C2=C/c1c(Cl)n(-c2ccccc2)c2ccccc12 | 43.3 | 66.5 | > 100 | 30.8 | > 100 | 63.7 | > 100 | 37.2 | 45.5 | 37 | 81.8 | 32.2 | 28 | 49 | 24.3 | 23.6 | 40.4 | > 100 | 61.7 | 73.5
11 | C[C@H](CCC(=O)O)[C@H]1CC[C@H]2[C@@H]3[C@H](O)C[C@@H]4C[C@H](O)CC[C@]4(C)[C@H]3CC[C@]12C | > 100 | > 100 | > 100 | > 100 | > 100 | > 100 | 91.1 | > 100 | > 100 | > 100 | 64.7 | > 100 | – | – | 62.1 | > 100 | > 100 | > 100 | > 100 | > 100
12 | CNC(=O)CNC(=O)C(Cc1ccc(NC(=O)CCCCC(C)=O)cc1)NC(=O)C(CCC(=O)OCc1ccccc1)NC(=O)OC(C)(C)C (configuration not stated) | > 100 | > 100 | > 100 | – | > 100 | > 100 | > 100 | > 100 | > 100 | > 100 | > 100 | > 100 | > 100 | > 100 | > 100 | > 100 | > 100 | > 100 | – | > 100
13 | Cn1c2ccccc2n2c3ccccc3c(=O)c(C#N)c12 | > 59.9 | > 100 | 35.2 | > 100 | 65.8 | > 100 | > 76.7 | 49.9 | > 100 | > 100 | > 59.8 | 58.1 | > 100 | 55.1 | > 80.8 | > 100 | > 95.6 | > 100 | > 100 | > 58.3
14 | CC(/C=N\NC(=S)N(C)C)=N/NC(=S)N(C)C | > 59.8 | > 47.7 | > 56.2 | – | > 100 | > 51.1 | 31.2 | > 34.2 | > 100 | > 100 | > 37.7 | 20.6 | > 22.8 | > 100 | > 100 | > 100 | 2.78 | > 100 | > 100 | > 100
15 | COc1cc2ccc1OCc1cccc(n1)COc1ccc(cc1OC)C=Nc1ccc(cc1)-c1ccc(cc1)N=C2 | > 100 | > 100 | > 100 | > 100 | > 100 | > 100 | > 100 | > 100 | > 100 | > 100 | > 100 | > 100 | > 100 | > 100 | > 100 | > 100 | > 100 | > 100 | > 100 | > 100
16 | O=C1CC(c2ccc(Cl)cc2)C2(C(=O)NC(=O)NC2=O)C(c2ccc(Cl)cc2)C1 (configuration not stated) | > 75 | > 75 | > 75 | > 75 | > 75 | 69 | 54.9 | 39.8 | 43.8 | 49 | > 75 | 40.6 | > 75 | > 75 | > 75 | 54 | > 75 | > 75 | > 75 | > 75
17 | COc1ccc2c(c1)CCC1=C/C(=N\NC(N)=O)CCC12C (configuration not stated) | > 10 | > 10 | > 10 | > 10 | > 10 | > 10 | > 10 | > 10 | > 10 | > 10 | > 10 | > 10 | > 10 | > 10 | > 10 | > 10 | > 10 | > 10 | > 10 | > 10
18 | CC1(C)CCC[C@@]2(C)C1C(=O)[C@@H]1O[C@]1(C)[C@@H]2CO (some centres not stated) | > 100 | 43.6 | – | > 100 | > 100 | > 100 | 88 | > 100 | > 100 | > 100 | 67.9 | 93.1 | 50.8 | > 100 | > 100 | > 100 | > 100 | > 100 | > 100 | > 100
19 | CCCCCCCCCCCCCCCC(=O)OC(COC(C)=O)CO[P+](=O)O (configuration not stated) | 38.9 | > 100 | > 100 | > 100 | > 100 | – | 34 | > 100 | > 100 | > 100 | – | 36.2 | > 100 | 35.4 | 53.3 | > 100 | > 100 | > 100 | > 100 | > 100
20 | CCOC(=O)CCC(NC(=O)c1ccc(Nc2cnc3ccc(C(F)(F)F)cc3n2)cc1)C(=O)OCC (configuration not stated) | > 56.6 | 97.1 | > 65.1 | > 100 | > 100 | > 100 | > 43.1 | > 100 | > 100 | > 100 | > 72.5 | > 100 | > 100 | > 100 | 39 | > 100 | > 100 | > 40.8 | > 100 | > 77.5
21 | CCCC(=O)OCC1OC(n2cc(F)c(=O)[nH]c2=O)C(F)C1OC(=O)CCC (configuration not stated) | > 100 | > 100 | > 100 | > 100 | > 100 | > 100 | > 100 | > 100 | > 100 | > 100 | > 100 | > 100 | > 100 | > 100 | 27.5 | > 100 | > 100 | > 100 | > 100 | > 100
22 | COc1cccc(NC(=O)CC(=O)N2N=C(C)C(N=Nc3ccc(S(=O)(=O)CCOS(=O)(=O)O)cc3)C2=O)c1 (configuration not stated) | 9.07 | 14.5 | 10.5 | > 100 | 29.6 | 26 | 13.2 | 23.2 | 10.4 | 14 | 20.9 | 2.48 | 17 | 30.6 | 28.3 | 20.1 | 24.2 | 18.9 | 23 | –
23 | Nc1cc(-c2ccc(Cl)cc2)nn1-c1nc2ccccc2nc1-c1ccccc1 | > 100 | > 100 | > 100 | > 100 | > 100 | > 100 | > 100 | > 100 | > 100 | > 100 | – | > 100 | > 100 | > 100 | > 100 | > 100 | > 100 | > 100 | > 100 | > 100
24 | CCSC1=N/C(=C/c2ccccc2O)C(=O)N1 | > 100 | > 100 | > 100 | > 100 | > 100 | > 100 | > 100 | > 100 | > 100 | > 100 | > 100 | > 100 | > 100 | > 100 | 91.8 | > 100 | > 100 | – | > 100 | > 100
